Measurements published in patent US20230141600A1, “IMIDAZOPYRAZINE DERIVATIVES” (priority 2020, published 2023).
Counter-ions that a name gives are not always drawn.

system: Acinetobacter baumannii ATCC17961; assay: 90% growth inhibitory concentration (IC90) determination, antimicrobial susceptibility testing; assay type: cell-based; conditions: Acinetobacter baumannii, ATCC17961, 16 h, 90% growth inhibition, Iso-Sensitest broth, OD 600 nm over 16 h, 35±2° C.; read-out: ATCC 17961 IC90
Experimental: Antimicrobial Susceptibility Testing:
90% Growth Inhibitory Concentration (IC90) Determination
The in vitro antimicrobial activity of the compounds was determined according to the following procedure:
The assay used a 10-points Iso-Sensitest broth medium to measure quantitatively the in vitro activity of the compounds against Acinetobacter baumannii ATCC17961 and ATCC17978.
Stock compounds in DMSO were serially twofold diluted (e.g. range from 50 to 0.097 μM final concentration) in 384 wells microtiter plates and inoculated with 49 μl the bacterial suspension in Iso-Sensitest medium to have a final cell concentration of ˜5×10^(5) CFU/ml in a final volume/well of 50 ul/well. Microtiter plates were incubated at 35±2° C.
Bacterial cell growth was determined with the measurement of optical density at λ=600 nm each minutes over a time course of 16 h. Growth inhibition was calculated during the logarithmic growth of the bacterial cells with determination of the concentration inhibiting 50% (IC50) and 90% (IC90) of the growth.
Table 2 provides the 90% growth inhibitory concentrations (IC90) in micromoles per liter of the compounds of present invention obtained against the strain Acinetobacter baumannii ATCC17961.

Compound | IC90
CCc1cc(Nc2nccn3c(-c4ccc(OC)c(F)c4F)cnc23)ccc1C(=O)NCC1CC[N+](CC(=O)O)(CC2CNC2)CC1 (stereo not drawn) [Example 128, 2-[1-(Azetidin-3-ylmethyl)-4-[[[4-[[3-(2,3-difluoro-4-methoxy-phenyl)imidazo[1,2-a]pyrazin-8-yl]amino]-2-ethyl-benzoyl]amino]methyl]piperidin-1-ium-1-yl]acetic acid bis(2,2,2-trifluoroacetate)] | 343 nM
CCc1cc(Nc2nccn3c(-c4ccc(OC)c(F)c4F)cnc23)ccc1C(=O)NC1CC[N+](C)(CC2CNC2)CC1 (stereo not drawn) [Example 136, N-[1-(Azetidin-3-ylmethyl)-1-methyl-piperidin-1-ium-4-yl]-4-[[3-(2,3-difluoro-4-methoxy-phenyl)imidazo[1,2-a]pyrazin-8-yl]amino]-2-ethyl-benzamide bis(2,2,2-trifluoroacetate)] | 955 nM
CCc1cc(Nc2nccn3c(-c4ccc(OC)c(F)c4F)cnc23)ccc1C(=O)NCCCNC(=O)C1CC[N+](C)(CC2CNC2)CC1 (stereo not drawn) [Example 129, 1-(Azetidin-3-ylmethyl)-N-[3-[[4-[[3-(2,3-difluoro-4-methoxy-phenyl)imidazo[1,2-a]pyrazin-8-yl]amino]-2-ethyl-benzoyl]amino]propyl]-1-methyl-piperidin-1-ium-4-carboxamide bis(trifluoroacetate)] | 86.2 nM
CCc1cc(Nc2nccn3c(-c4ccc(OC)c(F)c4F)cnc23)ccc1C(=O)NCC1CC[N+](C)(CC(=O)NCC2CCNC2)CC1 (stereo not drawn) [Example 132, 4-[[3-(2,3-Difluoro-4-methoxy-phenyl)imidazo[1,2-a]pyrazin-8-yl]amino]-2-ethyl-N-[[1-methyl-1-[2-oxo-2-(pyrrolidin-3-ylmethylamino)ethyl]piperidin-1-ium-4-yl]methyl]benzamide bis(2,2,2-trifluoroacetate)] | 320 nM
CCc1cc(Nc2nccn3c(-c4ccc(OC)c(F)c4F)cnc23)ccc1C(=O)NCC1CC[N+](C)(CC2CCCN2)CC1 (stereo not drawn) [Example 142, 4-[[3-(2,3-Difluoro-4-methoxy-phenyl)imidazo[1,2-a]pyrazin-8-yl]amino]-2-ethyl-N-[[1-methyl-1-(pyrrolidin-2-ylmethyl)piperidin-1-ium-4-yl]methyl]benzamide 2,2,2-trifluoroacetate] | 336 nM
CCc1cc(Nc2nccn3c(-c4ccc(OC)c(F)c4F)cnc23)ccc1C(=O)NCCCCC[N+](C)(CC(=O)O)CC1CNC1 (stereo not drawn) [Example 106, Azetidin-3-ylmethyl-(carboxymethyl)-[5-[[4-[[3-(2,3-difluoro-4-methoxy-phenyl)imidazo[1,2-a]pyrazin-8-yl]amino]-2-ethyl-benzoyl]amino]pentyl]-methyl-ammonium Formate] | 241 nM
CCc1cc(Nc2nccn3c(-c4ccc(OC(F)F)c(F)c4F)cnc23)ccc1C(=O)NCC1C2C[N+](C)(CC3CNC3)CC12 (stereo not drawn) [Example 80, N-[[3-(azetidin-3-ylmethyl)-3-methyl-3-azoniabicyclo[3.1.1]hexan-6-yl]methyl]-4-[[3-[4-(difluoromethoxy)-2,3-difluoro-phenyl]imidazo[1,2-a]pyrazin-8-yl]amino]-2-ethyl-benzamide bis(2,2,2-trifluoroacetate)] | 95.9 nM
CCc1cc(Nc2nccn3c(-c4ccc(OC)c(F)c4F)cnc23)ccc1C(=O)NCCCCC[N+](C)(CCCCCN)CC(=O)O (stereo not drawn) [Example 11, 5-Aminopentyl-(carboxymethyl)-[5-[[4-[[3-(2,3-difluoro-4-methoxy-phenyl)imidazo[1,2-a]pyrazin-8-yl]amino]-2-ethyl-benzoyl]amino]pentyl]-methyl-ammonium 2,2,2-trifluoroacetate] | 131 nM
CCc1cc(Nc2nccn3c(-c4ccc(OC)c(F)c4F)cnc23)ccc1C(=O)N[C@H]1[C@@H]2C[N+](C)(CC3CNC3)C[C@@H]21 (mixture of isomers) [Example 137, 4-[[3-(2,3-Difluoro-4-methoxy-phenyl)imidazo[1,2-a]pyrazin-8-yl]amino]-2-ethyl-N-[rac-(1S,5R)-3-(azetidin-3-ylmethyl)-3-methyl-3-azoniabicyclo[3.1.0]hexan-6-yl]benzamide bis(2,2,2-trifluoroacetate)] | 1220 nM
CCc1cc(Nc2nccn3c(-c4ccc(OC)c(F)c4F)cnc23)ccc1C(=O)N[C@H]1C[C@@H](NC(=O)C2CC[N+](C)(CC3CNC3)CC2)C1 (stereo partly drawn) [Example 126, 1-(Azetidin-3-ylmethyl)-N-[3-[[4-[[3-(2,3-difluoro-4-methoxy-phenyl)imidazo[1,2-a]pyrazin-8-yl]amino]-2-ethyl-benzoyl]amino]cyclobutyl]-1-methyl-piperidin-1-ium-4-carboxamide formate 2,2,2-trifluoroacetate (Mixed Salt)] | 111 nM

Other lines, results leading:

IC90 | Compound
31 nM | CCc1cc(Nc2nccn3c(-c4ccc(OC)c(F)c4F)cnc23)ccc1C(=O)NCCOCC[N+](C)(C)CC#N [Example 74, N-(Cyanomethyl)-2-(2-(4-((3-(2,3-difluoro-4-methoxyphenyl)imidazo[1,2-a]pyrazin-8-yl)amino)-2-ethylbenzamido)ethoxy)-N,N-dimethylethan-1-aminium Formate]
44.8 nM | COc1ccc(-c2cnc3c(Nc4ccc(C(=O)N[C@H]5CCN(C(=O)C[N+](C)(C)C)C5)c(C)c4)nccn23)c(F)c1F [Example 67, (S)-2-(3-(4-((3-(2,3-Difluoro-4-methoxyphenyl)imidazo[1,2-a]pyrazin-8-yl)amino)-2-methylbenzamido)pyrrolidin-1-yl)-N,N,N-trimethyl-2-oxoethan-1-aminium Chloride]
147 nM | CCc1cc(Nc2nccn3c(-c4ccc(OC(F)F)c(F)c4F)cnc23)ccc1C(=O)N1CCN(C(=O)C2CC[N+](C)(CCNC)CC2)CC1 (stereo not drawn) [Example 85, [4-[[3-[4-(difluoromethoxy)-2,3-difluoro-phenyl]imidazo[1,2-a]pyrazin-8-yl]amino]-2-ethyl-phenyl]-[4-[1-methyl-1-[2-(methylamino)ethyl]piperidin-1-ium-4-carbonyl]piperazin-1-yl]methanone bis(2,2,2-trifluoroacetate)]
467 nM | CCc1cc(Nc2nccn3c(-c4cn(CC#N)nc4C(F)(F)F)cnc23)ccc1C(=O)NCCOCC[N+]1(CC#N)CCOCC1 [Example 78, 4-(Cyanomethyl)-4-(2-(2-(4-((3-(1-(cyanomethyl)-3-(trifluoromethyl)-1H-pyrazol-4-yl)imidazo[1,2-a]pyrazin-8-yl)amino)-2-ethylbenzamido)ethoxy)ethyl)morpholin-4-ium Formate]
121 nM | COc1ccc(-c2cnc3c(Nc4ccc(C(=O)NCCC[N+](C)(C)CCO)c(Cl)c4)nccn23)c(F)c1F [Example 73, 3-(2-chloro-4-((3-(2,3-difluoro-4-methoxyphenyl)imidazo[1,2-a]pyrazin-8-yl)amino)benzamido)-N-(2-hydroxyethyl)-N,N-dimethylpropan-1-aminium Formate]
132 nM | CCc1cc(Nc2nccn3c(-c4ccc(OC(F)F)c(F)c4F)cnc23)ccc1C(=O)N1CCN(C(=O)C2CC[N+](C)(CC3CCNC3)CC2)CC1 (stereo not drawn) [Example 84, [4-[[3-[4-(difluoromethoxy)-2,3-difluoro-phenyl]imidazo[1,2-a]pyrazin-8-yl]amino]-2-ethyl-phenyl]-[4-[1-methyl-1-(pyrrolidin-3-ylmethyl)piperidin-1-ium-4-carbonyl]piperazin-1-yl]methanone bis(2,2,2-trifluoroacetate)]
1700 nM | CCc1cc(Nc2nccn3c(-c4ccc(OC(F)F)c(F)c4F)cnc23)ccc1C(=O)N1CC[N+](C)(CC2CCNC2)CC1 (stereo not drawn) [Example 119, [4-[[3-[4-(Difluoromethoxy)-2,3-difluoro-phenyl]imidazo[1,2-a]pyrazin-8-yl]amino]-2-ethyl-phenyl]-[4-methyl-4-(pyrrolidin-3-ylmethyl)piperazin-4-ium-1-yl]methanone Formate]
546 nM | C[N+](C)(C)CC(=O)N1CCN(C(=O)c2ccc(Nc3nccn4c(-c5cn(CC#N)nc5C(F)(F)F)cnc34)cc2Cl)CC1 [Example 65, [2-[4-[2-Chloro-4-[[3-[1-(cyanomethyl)-3-(trifluoromethyl)pyrazol-4-yl]imidazo[1,2-a]pyrazin-8-yl]amino]benzoyl]piperazin-1-yl]-2-oxo-ethyl]-trimethyl-ammonium Formate]
4300 nM | CCc1cc(Nc2nccn3c(-c4cn(CC#N)nc4C(F)(F)F)cnc23)ccc1C(=O)NCCCCC[N+](C)(C)CC(=O)O [Example 110, Carboxymethyl-[5-[[4-[[3-[1-(cyanomethyl)-3-(trifluoromethyl)pyrazol-4-yl]imidazo[1,2-a]pyrazin-8-yl]amino]-2-ethyl-benzoyl]amino]pentyl]-dimethyl-ammonium Formate]

same assay, conditions: Acinetobacter baumannii, ATCC17961, 16 h, read-out: ATCC 17961 IC90

Compound | IC90
CCc1cc(Nc2nccn3c(-c4ccc(OC)c(F)c4F)cnc23)ccc1C(=O)NCC1CC[N+](C)(Cc2cccnc2)CC1 (stereo not drawn) [Example 140, 4-[[3-(2,3-difluoro-4-methoxy-phenyl)imidazo[1,2-a]pyrazin-8-yl]amino]-2-ethyl-N-[[1-methyl-1-(3-pyridylmethyl)piperidin-1-ium-4-yl]methyl]benzamide; 2,2,2-trifluoroacetate] | 115 nM
CCc1cc(Nc2nccn3c(-c4ccc(OC(F)F)c(F)c4F)cnc23)ccc1C(=O)NCCCNC(=O)C1CC[N+](C)(CC2CCNC2)CC1 (stereo not drawn) [Example 82, N-[3-[[4-[[3-[4-(Difluoromethoxy)-2,3-difluoro-phenyl]imidazo[1,2-a]pyrazin-8-yl]amino]-2-ethyl-benzoyl]amino]propyl]-1-methyl-1-(pyrrolidin-3-ylmethyl)piperidin-1-ium-4-carboxamide bis (2,2,2-trifluoroacetate)] | 110 nM
